The text below walks through data of patent US10253071B2, “Selectin inhibitors, composition, and uses related thereto” (Beth Israel Deaconess Medical Center, Inc., priority 2014, dated 2019).

Like-named read-outs stand apart in the source and are kept apart here. Square brackets hold non-standard residues; d marks the D form. Ends that are not written are not given here. Peptide text beside a SMILES is read from it. * marks the point of attachment. X1 = CC(=O)N[C@@H]1[C@@H](O[C@@H]2O[C@H](CO)[C@H](O)[C@H](O)[C@H]2O)[C@@H](O)[C@@H](CO[C@@H]2O[C@H](CO)[C@@H](O[C@@H]3O[C@H](CO)[C@H](O)[C@H](O[C@]4(C(=O)O)C[C@H](O)[C@@H](NC(C)=O)[C@H]([C@H](O)[C@H](O)CO)O4)[C@H]3O)[C@H](O[C@@H]3O[C@@H](C)[C@@H](O)[C@@H](O)[C@@H]3O)[C@H]2NC(C)=O)O[C@@H]1*; Phe(4-SO3H) = N[C@@H](Cc1ccc(S(=O)(=O)O)cc1)C(=O)O; Mca = COc1ccc2c(CC(=O)*)cc(=O)oc2c1

Data set [1] concerns P-selectin (recombinant Ig chimera). Kind of data set: Microarray binding screen of glycopeptide mimics, P-selectin. Details: species or system human and mouse. To be noted: selectin Ig chimeras 5-20 μg/mL, Alexa-488 anti-human IgG. The procedure:
(§1) Bound peptides were detected using Alexa-488 labeled anti-human IgG antibody (5 μg/mL). Three lectins RCA-1, AAL, and PNA were used to confirm the sequence of enzymatic steps. Monoclonal antibodies CHO131, PSG2 antibody and PL-1 were used to confirm the presence of SLex, tyrosine sulfates, and the peptide sequence, respectively. Biacore binding analysis to human P-selectin with observed rate constants for (D) GSnP-6, kon 3.1×10^5 M^−1s^−1, koff 6.9×10^3 M^−1s^−; GSn2P-6, kon6.4×10^5 M^−1s^−1, koff 6.8×10^3 M^−1s. Biacore binding analysis to mouse P-selectin with observed rate constants for (E) GsnP-6, kon 4.9×10^4 M^−1s^−1, koff 8.0×10^3 M^−1s^−; GSn2P-6 kon 5.3×10^4 M^−1s^−1, koff 9.0×10^3 M^−1s. (F) Temperature- and pH-dependent stability studies of GSnP-6.
Binding affinities of PSGL-1 mimics towards selectins was initially screened using a microarray in which glycosulfopeptides and glycan standards (Sialyl Le^x, NA2, NA2,3, NA2,6 and LNnT) were printed on a NHS-activated glass slide. The slide was then incubated with recombinant Ig chimeras of P-, L-, or E-selectin (5-20 μg/mL) followed by Alexa-488 labeled anti-human IgG antibody (5 μg/mL). […] Binding of glycopeptides mimics to selectins was […] dependent and inhibited by EDTA.

A short description of data set [2]: Chemical stability at low pH and at high temperature (RP-HPLC). Format: physicochemical. The following applies: sodium acetate/acetic acid buffer pH 5, 37° C.; and 2 mM phosphate buffer pH 7.5, 60° C. The procedure: as §1
The chemical stability of GSnP-6 was evaluated under low pH conditions by incubating the compound in sodium acetate/acetic acid buffer at pH 5, 37° C., as well as under high temperature conditions by incubation in 2 mM phosphate buffer at pH 7.5, 60° C. (FIG. 3E).

Data set [3] addresses T1, human P-selectin (Homo sapiens, UniProt P16109).
T1 sequence (P16109 42-830): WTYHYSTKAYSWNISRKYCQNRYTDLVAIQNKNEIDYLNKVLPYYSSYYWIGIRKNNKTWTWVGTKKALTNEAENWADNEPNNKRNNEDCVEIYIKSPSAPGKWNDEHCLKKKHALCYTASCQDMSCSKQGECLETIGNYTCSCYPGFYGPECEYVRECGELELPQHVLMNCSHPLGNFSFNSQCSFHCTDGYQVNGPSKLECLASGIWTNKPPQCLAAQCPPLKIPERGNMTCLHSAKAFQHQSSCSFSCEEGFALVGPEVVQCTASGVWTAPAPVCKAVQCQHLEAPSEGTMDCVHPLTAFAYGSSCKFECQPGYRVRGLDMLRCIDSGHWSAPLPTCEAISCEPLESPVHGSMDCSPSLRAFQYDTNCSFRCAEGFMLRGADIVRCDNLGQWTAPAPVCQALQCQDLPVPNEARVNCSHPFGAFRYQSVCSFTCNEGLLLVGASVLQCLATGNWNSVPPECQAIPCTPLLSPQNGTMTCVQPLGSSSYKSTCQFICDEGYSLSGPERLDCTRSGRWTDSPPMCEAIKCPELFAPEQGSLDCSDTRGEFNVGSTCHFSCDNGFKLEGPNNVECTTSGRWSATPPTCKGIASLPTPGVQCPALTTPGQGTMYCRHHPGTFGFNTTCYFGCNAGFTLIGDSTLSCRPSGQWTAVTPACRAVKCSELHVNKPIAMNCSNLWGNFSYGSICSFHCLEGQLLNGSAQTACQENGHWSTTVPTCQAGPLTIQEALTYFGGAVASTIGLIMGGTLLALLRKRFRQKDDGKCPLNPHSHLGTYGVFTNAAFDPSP
Kind of data set: Biacore binding assay, human P-selectin. The method, then:
as §1
(§2) Dissociation constants (Kd) were determined using a Biacore binding assay after initial capture of biotinylated GS(n)P-6 onto streptavidin-coated sensor chips followed by flow through of P-, L- or E-sel-Ig (2.5 to 60 μg/mL). […] The Kd of GSnP-6 to murine P-selectin was ˜9-fold lower than to human P-selectin.

Another data set addresses T2, mouse P-selectin (Mus musculus, UniProt Q01102).
T2 sequence (Q01102 42-768): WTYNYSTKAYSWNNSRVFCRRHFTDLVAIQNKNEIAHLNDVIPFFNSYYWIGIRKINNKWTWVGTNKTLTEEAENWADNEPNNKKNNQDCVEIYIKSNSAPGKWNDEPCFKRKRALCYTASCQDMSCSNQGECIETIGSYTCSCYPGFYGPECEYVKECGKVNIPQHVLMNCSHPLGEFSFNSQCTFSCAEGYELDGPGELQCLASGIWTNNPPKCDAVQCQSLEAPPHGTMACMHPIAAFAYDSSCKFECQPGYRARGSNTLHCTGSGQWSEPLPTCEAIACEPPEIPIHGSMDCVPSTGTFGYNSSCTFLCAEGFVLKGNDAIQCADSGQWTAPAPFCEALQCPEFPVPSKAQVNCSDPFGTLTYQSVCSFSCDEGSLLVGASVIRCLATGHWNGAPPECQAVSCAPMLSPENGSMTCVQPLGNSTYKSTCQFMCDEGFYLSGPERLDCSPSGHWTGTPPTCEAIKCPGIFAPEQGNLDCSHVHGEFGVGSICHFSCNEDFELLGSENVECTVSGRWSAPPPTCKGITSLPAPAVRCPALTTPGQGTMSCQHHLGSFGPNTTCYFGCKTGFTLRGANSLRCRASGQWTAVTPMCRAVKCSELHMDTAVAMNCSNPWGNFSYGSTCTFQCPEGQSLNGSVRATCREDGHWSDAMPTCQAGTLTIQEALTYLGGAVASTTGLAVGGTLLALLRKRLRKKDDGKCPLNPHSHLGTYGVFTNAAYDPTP
Kind of data set: Biacore binding assay, mouse P-selectin. The method, then: as §1, §2

The target in data set [4] is T1, human P-selectin. To be noted: comparison value for P-selectin; read-out: Kd of native PSGL-1 (comparison value); cited from earlier work.

Consider “GSP-6: Tyrosine O-sulfate series (X: O; R=H); native N-terminal PSGL-1 sequence containing tyrosine sulfate, hexasaccharide glycan (EYEYLDYDFLPETEPPE; also: tyrosine O-sulfate, positions not given here, hexasaccharide glycan, site not given here) [reference compound]”, for which, in data set [1], the “binding to P-selectin compared with E- or L-selectin” value is given as “bound to P-selectin more strongly than to E- or L-selectin”. Moreover, in data set [2], the “chemical stability (degraded products by RP-HPLC)” value was “rapidly degrades”.
Regarding `COc1ccc2c(CC(=O)NCCCC[C@H](N)C(=O)N[C@@H](CCC(=O)O)C(=O)N[C@@H](Cc3ccc(S(=O)(=O)O)cc3)C(=O)N[C@@H](CCC(=O)O)C(=O)N[C@@H](Cc3ccc(S(=O)(=O)O)cc3)C(=O)N[C@@H](CC(C)C)C(=O)N[C@@H](CC(=O)O)C(=O)N[C@@H](Cc3ccc(S(=O)(=O)O)cc3)C(=O)N[C@@H](CC(=O)O)C(=O)N[C@@H](Cc3ccccc3)C(=O)N[C@@H](CC(C)C)C(=O)N3CCC[C@H]3C(=O)N[C@@H](CCC(=O)O)C(=O)N[C@H](C(=O)N[C@@H](CCC(=O)O)C(=O)N3CCC[C@H]3C(=O)N[C@@H](CC(C)C)C(=O)O)[C@@H](C)O[C@H]3O[C@H](CO[C@@H]4O[C@H](CO)[C@@H](O[C@@H]5O[C@H](CO)[C@H](O)[C@H](O[C@]6(C(=O)O)C[C@H](O)[C@@H](NC(C)=O)[C@H]([C@H](O)[C@H](O)CO)O6)[C@H]5O)[C@H](O[C@@H]5O[C@@H](C)[C@@H](O)[C@@H](O)[C@@H]5O)[C@H]4NC(C)=O)[C@H](O)[C@H](O[C@@H]4O[C@H](CO)[C@H](O)[C@H](O)[C@H]4O)[C@H]3NC(C)=O)cc(=O)oc2c1` [GSn2P-6] (H-K(Mca)E[Phe(4-SO3H)]E[Phe(4-SO3H)]LD[Phe(4-SO3H)]DFLPET(X1)EPL-OH; N-terminus assumed), the koff on human P-selectin [3] (Biacore observed rate constant) was 0.0068 s⁻¹; on mouse P-selectin (read-out: koff, mouse P-selectin) it was 0.009 s⁻¹. Besides, the kon on human P-selectin [3] (Biacore observed rate constant) worked out at 640000 M⁻¹ s⁻¹; at mouse P-selectin (read-out: kon, mouse P-selectin), 53000 M⁻¹ s⁻¹. Also, the Kd on human P-selectin [3] (biotinylated GS(n)P-6 captured on streptavidin chip, P-sel-Ig 2.5 to 60 μg/mL, read-out: Dissociation constant (Kd) to human P-selectin) worked out at 14 nM.

B1: native PSGL-1: native P-selectin glycopeptide ligand-1, Kd comparison value (protein, UniProt Q14242 42-412, looked up)
P-selectin glycoprotein …: QATEYEYLDYDFLPETEPPEMLRNSTDTTPLTGPGTPESTTVEPAARRSTGLDAGGAVTELTTELANMGNLSTDSAAMEIQTTQPAATEAQTTQPVPTEAQTTPLAATEAQTTRLTATEAQTTPLAATEAQTTPPAATEAQTTQPTGLEAQTTAPAAMEAQTTAPAAMEAQTTPPAAMEAQTTQTTAMEAQTTAPEATEAQTTQPTATEAQTTPLAAMEALSTEPSATEALSMEPTTKRGLFIPFSVSSVTHKGIPMAASNLSVNYPVGAPDHISVKQCLLAILILALVATIFFVCTVVLAVRLSRKGHMYPVRNYSPTEMVCISSLLPDGGEGPSATANGGLSKAKSPGLTPEPREDREGDDLTLHSFLP
Take B1: the Kd in the data set with human P-selectin [4] is 73 nM.
